Consider seven compounds from patent US20120179381A1, “TOXICITY SCREENING METHODS” (priority 2010, published 2012).

A value given as a limit tells only on which side of the number the result lay.

Data set [1] concerns primary hepatocytes in sandwich culture; Rat (H4IIE) cells. As to the kind of experiment: General cell health / mitochondrial function (ATP) cytotoxicity assays of the liver toxicity screen. The format is cell-based. To be noted: for IC50: Rattus norvegicus, H4IIE, Table 2, unit inferred. Here is the method: (§1) Cell Culture: Primary hepatocytes in sandwich culture were obtained freshly-plated from outside vendors and used to assess general liver toxicity. Hepatocytes were plated in 24-well or 96-well microplates at a density of 400 K/well and 100 K/well, respectively, and kept at 37° C., 5% CO2 in a humidified incubator. Sandwich culture plates have a collagen substratum with Matrigel overlay, optimal growth conditions for hepatocytes with intact and functional bile canalicular networks. After 3 days in culture, cells were shipped to the inventor. Upon receipt, medium was replaced with fresh Williams E medium (Sigma) containing 10% bovine serum (Invitrogen), and cells were acclimated overnight prior to treatment (Hewitt et al. 2007).
Rat (H4IIE) cells were seeded in flat bottom 96-well plates at a density of 10,000 cells/well in Eagles Minimum Essential Medium (Sigma Chemical) supplemented with 10% bovine serum and 10% calf serum (Invitrogen). Cells were allowed to equilibrate for approximately 48 hours to allow cells to move into a stable growth phase prior to treatment.
(§2) Cytotoxicity: ATP was measured using an ATP-Lite kit from Perkin Elmer according to the manufacturer's instructions. Membrane integrity was monitored by determining the presence of α-Glutathione S-transferase (α-GST), released into the culture medium using an ELISA assay (Argutus Medical). Intracellular glutathione levels were determined essentially as described by Griffith (1980) with modifications. Cell mass in each well was measured with propidium iodide (PI). This specific nucleic acid binding dye fluoresces when intercalated within the nucleic acids. After incubation, the test compound was removed by aspiration of the media and Triton X-100 solution containing propidium iodide was added to permeabilized cells.

Data set [2] addresses T1, BSEP (UniProt O95342, species not given).
T1 construct: rows headed: BSEP
As to the kind of experiment: BSEP cell-free transport assay. To be noted: BSEP cell-free transport assay (GenoMembrane); Table 2; number or Y/N for inhibition, unit inferred. Type of data set: biochemical, Rat or human. As for the experimental part: (§3) Rat or human BSEP cell-free assay were performed according to GenoMembrane protocol for BSEP transport analysis.

The test system of data set [3] is primary hepatocytes in sandwich culture. Put plainly: Liver specific toxicity assays in primary hepatocytes in sandwich culture (GSH, mitochondria, oxidative stress, GGT). Type of data set: cell-based. The settings on record: FIG. 11. As for the experimental part:
as §1, §2
8-ISO levels were determined using an ELISA. 8-ISO is a member of a family of eicosanoids produced non-enzymatically by random oxidation of tissue phospholipids by oxygen radicals. Therefore, an increase in 8-ISO is an indirect measure of increased lipid peroxidation (Vacchiano and Tempel, 1994).
γ-Glutamyltransferase (GGT) activity was measured using the Catachem GGT kit with modifications. After completion of exposures, media was removed from the plates and cell and cell supernatants were stored at −80° C. until analyzed.

The next data set deals with CYP3A. As to the kind of experiment: Inhibition of CYP3A. The settings on record: Table 2; number or Y/N, unit inferred. Type of data set: in vitro ADME.
The conditions of data set [4]: Table 2; Y/N; cited from earlier work.
For data set [5], the system named is primary hepatocytes in sandwich culture; Rat (H4IIE) cells. As to the kind of experiment: Intracellular glutathione (GSH) levels, liver toxicity screen. Type of data set: cell-based. The settings on record: FIG. 12, read-out: depleting intracellular glutathione levels, IC50. Here is the method:
as §1, with “2007). […]” for “2007).”
Cytotoxicity: ATP was measured using an ATP-Lite kit from Perkin Elmer according to the manufacturer's instructions. Membrane integrity was monitored by determining the presence of α-Glutathione S-transferase (α-GST), released into the culture medium using an ELISA assay (Argutus Medical). Intracellular glutathione levels were determined essentially as described by Griffith (1980) with modifications. Cell mass in each well was measured with propidium iodide (PI). […]

Data set [6] deals with BSEP. Put plainly: BSEP cell-free transport assay. To be noted: Table 2; number or Y/N for inhibition, unit not given. Type of data set: biochemical, Rat or human. Here is the method: as §3
In a further data set the target is OCT2 (Sus scrofa, UniProt O02713). The settings on record: Cimetidine at 500 μM or 1 mM; LLC-PK1 cell model; FIG. 4. As for the experimental part: (§4) Cell Culture: Two cell types were used in this Example—primary human renal proximal tubule cells (hRPTCs) and a well characterized porcine renal proximal tubule (LLC-PK1) cell line. The hRPTCs were obtained from Lonza, Clonetics (Walkersville, Md.) and the LLC-PK1 was obtained from ATCC.
Chain of OCT2 (O02713 whole entry): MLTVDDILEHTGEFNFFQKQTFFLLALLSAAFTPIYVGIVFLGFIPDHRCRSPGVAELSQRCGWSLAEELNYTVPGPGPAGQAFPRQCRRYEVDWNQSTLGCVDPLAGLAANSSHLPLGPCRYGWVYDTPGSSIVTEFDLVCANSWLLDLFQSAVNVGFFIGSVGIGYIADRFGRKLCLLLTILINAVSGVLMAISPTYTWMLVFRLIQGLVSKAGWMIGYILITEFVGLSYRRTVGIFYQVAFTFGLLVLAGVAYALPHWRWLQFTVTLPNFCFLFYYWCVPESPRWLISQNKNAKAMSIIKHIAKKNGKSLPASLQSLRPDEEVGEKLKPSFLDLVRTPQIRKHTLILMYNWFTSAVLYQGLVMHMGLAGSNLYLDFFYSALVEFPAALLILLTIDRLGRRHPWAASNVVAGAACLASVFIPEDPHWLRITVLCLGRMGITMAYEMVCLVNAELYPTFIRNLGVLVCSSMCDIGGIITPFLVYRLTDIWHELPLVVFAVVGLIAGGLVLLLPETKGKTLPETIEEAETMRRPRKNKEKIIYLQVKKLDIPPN
(§5) Establishing Transwell Cultures: The hRPTCs were seeded into Corning transwell-COL 24-well tissue culture plates at a density of 7.4×10^4 cells/well. LLC-PK1 cells were seeded into BD 351181 transwell 24-well tissue culture plates at a cell density of 1.65×10^5 cells/well (FIG. 3). On day 6 of incubation, formation of tight-junctions between cells was determined by Lucifer Yellow and Mannitol. The growth medium used with the hRPTCs was modified DMEM/Ham's F-12, and the medium used for LLC-PK1 was DMEM with 10% FBS (Elwi et al. 2009; Morshed and McMartin, 1995).
(§6) Transport Assays: To determine transporter specific activity, several known substrates were selected: TEA (OCT1 and OCT2), Digoxin (OATP4C1), Metformin (OCT2 basolateral and MATE1 apical). LLC-PK1 cells were seeded in BD 351181 24-well tissue culture plates at a cell density of 1.65×10^5 cells/well. After culturing for 6 days, apical and basolateral chambers were washed at room temperature with D-PBS buffer (containing 137 mM NaCl, 3 mM KCl, 8 mM Na2HPO4, 1.5 mM KH2PO4, 1 mM CaCl2, 0.5 mM MgCl2 and 5 mM D-glucose; pH 7.4) then incubated with non-radiolabeled substrate on both apical and basolateral sides for 60 minutes. Media was removed and the cells rinsed with buffer prior to adding the radiolabeled substrate. Radiolabeled substrate (with or without inhibitor) was added to apical or basolateral chambers, and samples were collected from the opposite side at 40 minutes. Cellular uptake was determined by washing the transwell membranes containing the cells twice with ice-cold D-PBS, then transferring the insert with cells to scintillation vials containing 2% Triton X-100. Scintillation was counted using Opti-Flour (Perkin Elmer) and in a Packard Tri-Carb 2100TR liquid scintillation counter.

In the next data set the target is hOCT2 (Homo sapiens, UniProt O15244). To be noted: hRPTCs; FIG. 4. Here is the method:
as §4, §5, §6

The subject of the next data set is hRPTC. Put plainly: Cisplatin cytotoxicity in primary human renal proximal tubule cells (ATP, cell number, membrane integrity, GGT). The format is cell-based. To be noted: FIG. 6, read-out: IC50 for ATP depletion. Here is the method: Cytotoxicity: Cell viability was determined by measuring intracellular ATP levels with ATP-Lite from Perkin Elmer according to the manufacturer's instructions. Cell proliferation was determined from bromodeoxyuridine (BrdU) incorporation. Membrane integrity was measured using glutathione S-transferase (GST) as a leakage marker (Argutus). The GST assay was done according to the manufacturer's instructions. Gamma-glutamyl transferase activity (GGT) was measured using the Catachem GGT kit with modifications.

Chain of hOCT2 (O15244 whole entry): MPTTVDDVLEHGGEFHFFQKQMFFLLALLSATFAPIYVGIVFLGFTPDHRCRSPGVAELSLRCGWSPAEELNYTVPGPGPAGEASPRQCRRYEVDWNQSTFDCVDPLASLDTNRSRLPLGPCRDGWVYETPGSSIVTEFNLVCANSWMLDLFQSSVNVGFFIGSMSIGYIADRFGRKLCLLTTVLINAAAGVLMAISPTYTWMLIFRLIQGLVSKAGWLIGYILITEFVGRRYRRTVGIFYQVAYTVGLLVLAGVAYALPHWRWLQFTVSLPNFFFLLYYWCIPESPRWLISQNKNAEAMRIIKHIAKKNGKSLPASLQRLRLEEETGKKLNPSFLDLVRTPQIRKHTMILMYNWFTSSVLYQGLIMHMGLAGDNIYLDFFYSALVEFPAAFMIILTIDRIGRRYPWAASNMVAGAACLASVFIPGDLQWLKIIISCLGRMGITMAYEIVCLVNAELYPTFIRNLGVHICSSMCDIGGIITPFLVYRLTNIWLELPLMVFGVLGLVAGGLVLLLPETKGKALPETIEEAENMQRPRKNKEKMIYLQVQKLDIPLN

As usually defined, the IC50 is the concentration at which inhibition is half-maximal. Regarding `CN(CCOc1ccc(CC2SC(=O)NC2=O)cc1)c1ccccn1` (stereo not shown) [Rosiglitazone], the 50% inhibitory concentration (IC50) is greater than 300 µM in data set [1] and 8 µM against BSEP [2].

On to `S=C=Nc1cccc2ccccc12` [ANIT, α-naphthyl-isothiocyanate], for which, in [3], the “canalicular membrane integrity (GGT release)” value is on record as “damaged”, the glutathione result was “decreased”, the mitochondria result was “disrupted” and the oxidative stress entry is recorded as “increased”.

As for `CCC(C)n1ncn(-c2ccc(N3CCN(c4ccc(OCC5COC(Cn6cncn6)(c6ccc(Cl)cc6Cl)O5)cc4)CC3)cc2)c1=O` (stereo not shown) [Itraconazole], the IC50 in the data set on CYP3A is 2.3 µM; in data set [1] it was 150 µM.

In the case of `CCc1ccc(CCOc2ccc(CC3SC(=O)NC3=O)cc2)nc1` (stereo not shown) [Pioglitazone], the “Clin Cholestatic” value in data set [4] is “Y-reversible”. Besides, the results for the IC50 (in data set [1]; against BSEP [2]) were greater than 300 µM and 5 µM, respectively.

In the case of `CCc1nn(CCCN2CCN(c3cccc(Cl)c3)CC2)c(=O)n1CCOc1ccccc1` [nefazodone], the IC50 in data set [5] is less than 50 µM. Besides, the “general cell health, toxicity relative to the other non-tricyclic antidepressants” value in [1] (FIG. 12, comparison of three non-tricyclic antidepressants) is reported as “most toxic”. In addition, in the data set with BSEP [6], the BSEP entry is reported as “inhibition”.

Turning to `CN/C(=N/CCSCc1nc[nH]c1C)NC#N` [Cimetidine], on OCT2, the “basolateral to apical flux (metformin), effect of inhibitor” value is “inhibited” and the “cellular uptake (metformin), effect of inhibitor” value was “inhibited”. In addition, at hOCT2, the “basolateral-to-apical flux (metformin), effect of inhibitor” value was “not inhibited” and the “cellular uptake (metformin), effect of inhibitor” value is reported as “inhibited”.

Regarding `N.N.[Cl][Pt][Cl]` [cisplatin], the IC50 in the data set on hRPTC was roughly 80 µM.
